Data published in PMC6270994, “The Hydractinia echinata Test-System. III: Structure-Toxicity Relationship Study of Some Azo-, Azo-Anilide, and Diazonium Salt Derivatives” (Molecules, 2014).
Read-outs that look alike come from different tables or passages of the source.

Tested on: Hydractinia echinata
Test: Hydractinia echinata test system (HeTS): reduction of Cs+-induced metamorphosis of larvae
Type: in vivo
Conditions: for EC50: Hydractinia echinata
Description: The average (C) concentrations of these values were calculated too. The MRC50 value calculations (Chicu et al.) result from the graphical representation of the metamorphosis variation, M (%), (Y axis) function of the xenobiotic’s concentration (mol/L) (X axis), where the metamorphosis decreases with the rise of the xenobiotic’s concentration. Thus, the MRC50 value represents the xenobiotic’s concentration (mol/L) necessary for a 50% decrease of metamorphosis, with respect to control.
For each concentration of substance experiments were performed in triplicate and were repeated at least twice.
Colonies of H. echinata (Biologische Anstalt, Helgoland, Germany) were used to obtain eggs and larvae. The culture medium was artificial seawater (980 mosmol, pH 8.2, 18 °C). In laboratory an artificial metamorphosis can be synchronically started by the introduction of Cs^+ ions or by using seawater without Mg^2+ ions; it then lasts only 24 h. Under the action of external stimulus of Cs^+ ions or Cs^+ ions together with the tested compounds, one part of larvae further lives as such and another one is metamorphosized to the polyp form. The evaluation of the influence of the tested substance is very clear this way, the proposed method being based on this aspect.
H. echinata larvae were exposed to seawater containing Cs^+ and simultaneously one of the test substances for 3 h. The percentage of animals that underwent metamorphosis (development into polyps) was determined after 24 h. […] We chose a concentration of inducers which caused about […] to three quarters of the larvae to metamorphose in order to have conditions which are highly sensitive against an inhibitory influence. […] This concentration was termed MRC50 (for Metamorphosis Reduction Concentration) and is similar to the effective EC50 concentration that gives half maximal effective response.

[1] = MRC50 in mol/L = concentration for 50% decrease of metamorphosis vs control, larvae exposed 3 h with Cs+, read after 24 h, read-out: M: experimental Mlog(1/MRC50) (converted)
[2] = parent dye, Table 2, read-out: F(1+2+...)e experimental toxicity log(1/MRC50) (converted)
[3] = MRC50 in mol/L = concentration for 50% decrease of metamorphosis vs control, larvae exposed 3 h with Cs+, read after 24 h

| Structure (SMILES) | EC50 [1] [µM] | M: experimental Mlog(1/MRC50) [3] | other results |
| --- | --- | --- | --- |
| O=C(Nc1ccc(N=Nc2ccc(O)c(C(=O)O)c2)cc1)c1ccc(N=Nc2ccc(O)c(C(=O)O)c2)cc1 [Compound 106, 5-[2-(4-{4-[2-(3-Carboxy-4-hydroxyphenyl)diazen-1-yl]benzamido}-phenyl)diazen-1-yl]-2-hydroxybenzoic acid] | 363 | – | EC50 [2]: 363 µM |
| O=C(Nc1ccc(N=Nc2c(S(=O)(=O)O)cc3cc(NC(=O)c4ccccc4)ccc3c2O)cc1)c1ccc(N=Nc2ccc(O)c(C(=O)Nc3ccccc3)c2)cc1 [Compound 118, 7-Benzamido-4-hydroxy-3-{2-[4-(4-{2-[4-hydroxy-3-(phenyl-carbamoyl)phenyl]diazen-1-yl}benzamido)-phenyl]diazen-1-yl}naphthalene-2-sulfonic acid] | 224 | – | – |
| O=S(=O)([O-])c1ccc2c(N=Nc3ccccc3[As](=O)(O)O)c(O)c(S(=O)(=O)[O-])cc2c1.[Na+].[Na+] [Compound 40, Thorin] | – | 3.46 | – |
| O=S(=O)([O-])c1ccc(N=Nc2c(O)ccc3ccccc23)c2ccccc12.[Na+] [Compound 56, Acid Red 88 (Fast Red AV)] | – | 3.31 | – |
| Nc1c(N=Nc2ccc([N+](=O)[O-])cc2)c(S(=O)(=O)[O-])cc2cc(S(=O)(=O)[O-])c(N=Nc3ccccc3)c(O)c12.[Na+].[Na+] [Compound 75, Acid Black 1 (Salt)] | – | 4.41 | – |
| Nc1c(/N=N/c2ccc(-c3ccc(/N=N/c4cc(S(=O)(=O)O)c5ccccc5c4N)cc3)cc2)cc(S(=O)(=O)O)c2ccccc12 [Compound 82, Congo Red] | 32.4 | – | – |
| Nc1c(N=Nc2ccc(C(=O)O)cc2)ccc2ccccc12 [Compound 26, 4-[2-(1-Aminonaphthalen-2-yl)diazen-1-yl]benzoic acid] | 18.6 | – | – |
| Cl.Cl.Nc1ccc(N=Nc2cccc(N=Nc3ccc(N)cc3N)c2)c(N)c1 [Compound 60, Bismark Brown Y (Vesuvin)] | – | 3.87 | – |
| COc1ccc(N=Nc2ccccc2)cc1 [Compound 1, (4-Methoxyphenyl) (phenyl)diazene] | 6.31 | – | EC50 [2]: 6.31 µM |
| CN(C)c1ccc(N=Nc2ccc(S(=O)(=O)[O-])cc2)cc1.[Na+] [Compound 14, Methyl Orange (Orange III)] | – | 3.74 | F(1+2+...)e experimental toxicity log(1/MRC50) (parent dye, Table 2): 3.74 |
| Nc1ccc(O)cc1O [2,4-DHA, 2,4-dihydroxyaniline] | – | – | EC50 (product of enzymatic reduction/hydrolysis of the dye, read-out: F(1), F(2),... individual log(1/MRC50) toxicity value (converted)): 0.55 µM |
| CN(C)c1ccc(/N=N/c2ccccc2C(=O)O)cc1 [Compound 3, Methyl Red] | 209 | – | – |
| O=C(Nc1ccc2c(O)c(N=Nc3ccc(N=Nc4ccc(S(=O)(=O)[O-])cc4)cc3S(=O)(=O)[O-])c(S(=O)(=O)[O-])cc2c1)Nc1ccc2c(O)c(N=Nc3ccc(N=Nc4ccc(S(=O)(=O)[O-])cc4)cc3S(=O)(=O)[O-])c(S(=O)(=O)[O-])cc2c1.[Na+].[Na+].[Na+].[Na+].[Na+].[Na+] [Compound 132, Direct Red 80 (Saturn Rot F3B)] | – | 3.80 | – |
| COc1cc(-c2ccc(N=Nc3ccc4c(S(=O)(=O)[O-])cc(S(=O)(=O)[O-])c(N)c4c3O)c(OC)c2)ccc1N=Nc1ccc2c(S(=O)(=O)[O-])cc(S(=O)(=O)[O-])c(N)c2c1O.[Na+].[Na+].[Na+].[Na+] [Compound 92, Direct Blue 1] | – | 3.79 | – |
| Nc1c(N=Nc2ccc([N+](=O)[O-])cc2)c(S(=O)(=O)[O-])cc2cc(S(=O)(=O)[O-])c(N=Nc3ccccc3)c(O)c12.[Na+].[Na+] [Compound 74, Acid Black 1 (Amido Black 10B)] | – | 4.33 | – |
| Nc1ccc(N=Nc2ccc(-c3ccc(N=Nc4c(S(=O)(=O)[O-])cc5cc(S(=O)(=O)[O-])c(N=Nc6ccccc6)c(O)c5c4N)cc3)cc2)c(N)c1.[Na+].[Na+] [Compound 83, Direct Black 38] | – | 4.26 | – |
| Nc1ccc2c(O)c(N=Nc3ccc(NC(=O)c4ccc(N=Nc5ccc(O)c(C(=O)O)c5)cc4)cc3)c(S(=O)(=O)O)cc2c1 [Compound 107, 5-{2-[4-({4-[2-(6-Amino-1-hydroxy-3-sulfonaphthalen-2-yl)diazen-1-yl]-phenyl}carbamoyl)-phenyl]diazen-1-yl}-2-hydroxybenzoic acid] | 219 | – | – |

| Structure (SMILES) | EC50 [1] [µM] | M: experimental Mlog(1/MRC50) [3] | other results |
| --- | --- | --- | --- |
| O=C(O)c1ccc(N=Nc2c(O)c(C(=O)O)cc3ccccc23)cc1 [Compound 25, 4-[2-(4-Carboxyphenyl)diazen-1-yl]-3-hydroxynaphthalene-2-carboxylic acid] | 355 | – | – |
| O=C(Nc1ccc(N=Nc2c(O)c(S(=O)(=O)O)cc3cc(S(=O)(=O)O)ccc23)cc1)c1ccc(N=Nc2ccc(O)c(C(=O)Nc3ccccc3)c2)cc1 [Compound 127, 3-Hydroxy-4-{2-[4-(4-{2-[4-hydroxy-3-(phenylcarbamoyl)phenyl]diazen-1-yl}-benzamido)phenyl]-diazen-1-yl}-naphthalene-2,7-disulfonic acid] | 58.9 | – | – |
| O=C(Nc1ccc(N=Nc2c(O)c(S(=O)(=O)O)cc3cc(S(=O)(=O)O)ccc23)cc1)c1ccc(N=Nc2c(O)c(S(=O)(=O)O)cc3cc(S(=O)(=O)O)ccc23)cc1 [Compound 110, 3-Hydroxy-4-[2-(4-{4-[2-(2-hydroxy-3,6-disulfonaphthalen-1-yl)diazen-1-yl]-benzamido}phenyl)-diazen-1-yl]-naphthalene-2,7-disulfonic acid] | 195 | – | – |
| Nc1cc(S(=O)(=O)O)cc2cc(S(=O)(=O)O)c(N=Nc3ccc(NC(=O)c4ccc(N=Nc5ccc(O)c(C(=O)Nc6ccccc6)c5)cc4)cc3)c(O)c12 [Compound 122, 5-Amino-4-hydroxy-3-{2-[4-(4-{2-[4-hydroxy-3-(phenyl-carbamoyl)phenyl]-diazen-1-yl}-benzamido)phenyl]-diazen-1-yl}-naphthalene-2,7-disulfonic acid] | 31.6 | – | – |
| O=C(Nc1ccc(N=Nc2c(S(=O)(=O)O)cc3cc(NC(=O)c4ccccc4)ccc3c2O)cc1)c1ccc(N=Nc2ccc(O)c(C(=O)O)c2)cc1 [Compound 119, 5-{2-[4-({4-[2-(6-Benzamido-1-hydroxy-3-sulfonaphthalen-2-yl)diazen-1-yl]-phenyl}carbamoyl)phenyl]diazen-1-yl}-2-hydroxybenzoic acid] | 22.4 | – | – |
| O=C(O)c1ccc(N=Nc2ccc(O)c(C(=O)O)c2)cc1 [Compound 9, 5-[2-(4-Carboxyphenyl)diazen-1-yl]-2-hydroxybenzoic acid] | 447 | – | EC50 [2]: 447 µM |
| Nc1ccc(C(=O)O)c(O)c1 [Ac p-AmS, p-aminosalicylic acid] | – | – | EC50 (read-out: F(1), F(2),... individual log(1/MRC50) toxicity value (converted)): 1070 µM |
| Cc1cc(-c2ccc(/N=N/c3c(S(=O)(=O)O)cc4cc(S(=O)(=O)O)cc(N)c4c3O)c(C)c2)ccc1/N=N/c1c(S(=O)(=O)O)cc2cc(S(=O)(=O)O)cc(N)c2c1O [Compound 90, Trypanblue (Direct Blue 14)] | 81.3 | – | – |
| CCOc1cc(NC(=O)c2ccccc2)c(OCC)cc1[N+]#N.[Cl-] [Compound 136, Fast Blue BB Salt] | – | 4.17 | – |
| O=C(Nc1ccc2c(O)c(N=Nc3ccccc3)c(S(=O)(=O)[O-])cc2c1)Nc1ccc2c(O)c(N=Nc3ccccc3)c(S(=O)(=O)[O-])cc2c1.[Na+].[Na+] [Compound 129, Direct Brilliant Orange] | – | 3.65 | – |
| O=S(=O)([O-])c1cccc(N=Nc2ccc(Nc3ccccc3)cc2)c1.[Na+] [Compound 12, Metanil Yellow (sodium salt)] | – | 4.17 | – |
| O=S(=O)(O)c1cc(/N=N/c2ccc(O)cc2O)ccc1/C=C/c1ccc(/N=N/c2ccc(O)cc2O)cc1S(=O)(=O)O [Compound 97, 5-[(E)-2-(2,4-Dihydroxyphenyl)-diazen-1-yl]-2-[(E)-2-{4-[(E)-2-(2,4-dihydroxyphenyl)-diazen-1-yl]-2-sulfophenyl}ethenyl]-benzene-1-sulfonic acid] | 186 | – | EC50 [2]: 186 µM |
| Nc1ccc(/N=N/c2ccccc2C(=O)O)cc1C(=O)O [Compound 5, 2-Amino-5-[(E)-2-(2-carboxyphenyl)diazen-1-yl]benzoic acid] | 26.3 | – | – |
| COc1ccc(N)cc1 [p-Methoxy-aniline] | – | – | F(1), F(2),... individual log(1/MRC50) toxicity value (in vivo): 3.32 |
| O=S(=O)(O)c1cc(N=Nc2c(O)ccc3ccccc23)ccc1C=Cc1ccc(N=Nc2c(O)ccc3ccccc23)cc1S(=O)(=O)O [Compound 100, 5-[2-(2-Hydroxy-naphthalen-1-yl)diazen-1-yl]-2-(2-{4-[2-(2-hydroxynaphthalen-1-yl)diazen-1-yl]-2-sulfophenyl}ethenyl)-benzene-1-sulfonic acid] | 28.2 | – | – |
| Cc1ccccc1/N=N/c1ccc(/N=N/c2c(O)ccc3ccccc23)c(C)c1 [Compound 63, Sudan IV (Scarlet Red)] | – | 3.05 | – |
